# Source: PubChem BioAssay AID1919004 (Molecular Pharmacology Branch, DTP, NCI, 2023)
# Test system: 883617-216-R-J1-PDC complex spheroids, growth, % test/control
# Assay: Anticancer human tumor 883617-216-R-J1-PDC patient-derived bladder carcinoma cell line growth inhibition [AhR]
# Settings: for IC50: curve of first compound; for viability, T/C: stronger effect = lower value
# Method in brief: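 Spheroids combined tumor cells with HUVEC endothelial cells and human MSCs as stroma. AhR antagonists were paired with standard or investigational drugs, each dosed in half-log steps down from near clinical Cmax, or from 10 microM where Cmax was unknown.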
# [1] = second compound 0.1 µM, first compound 0.0316 µM
# [2] = second compound 0.1 µM, first compound 0.1 µM
# [3] = second compound 0.1 µM, first compound 0.316 µM
# [4] = second compound 0.1 µM, first compound 1 µM
# [5] = second compound 0.1 µM, first compound 3.16 µM
# [6] = second compound 0.1 µM, first compound 10 µM
# [7] = second compound 0.316 µM, first compound 0.0316 µM
# [8] = second compound 0.316 µM, first compound 0.1 µM
# [9] = second compound 0.316 µM, first compound 0.316 µM
# [10] = second compound 0.316 µM, first compound 1 µM
# [11] = second compound 0.316 µM, first compound 3.16 µM
# [12] = second compound 0.316 µM, first compound 10 µM
# [13] = second compound 1 µM, first compound 0.0316 µM
# [14] = second compound 1 µM, first compound 0.1 µM
# [15] = second compound 1 µM, first compound 0.316 µM
# [16] = second compound 1 µM, first compound 1 µM
# [17] = second compound 1 µM, first compound 3.16 µM
# [18] = second compound 1 µM, first compound 10 µM
# [19] = second compound 3.16 µM, first compound 0.0316 µM
# [20] = second compound 3.16 µM, first compound 0.1 µM
# [21] = second compound 3.16 µM, first compound 0.316 µM
# [22] = second compound 3.16 µM, first compound 1 µM
# [23] = second compound 3.16 µM, first compound 3.16 µM
# [24] = second compound 3.16 µM, first compound 10 µM
# [25] = second compound 10 µM, first compound 0.0316 µM
# [26] = second compound 10 µM, first compound 0.1 µM
# [27] = second compound 10 µM, first compound 0.316 µM
# [28] = second compound 10 µM, first compound 1 µM
# [29] = second compound 10 µM, first compound 3.16 µM
# [30] = second compound 10 µM, first compound 10 µM
# 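Further: exposure lasted 7 days after dosing on day 3 of spheroid growth.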
smiles,measurement,setting,value
Nc1ccccc1NC(=O)c1ccc(CNC(=O)OCc2cccnc2)cc1 + Cc1ccccc1N=Nc1ccc(NC(=O)c2ccnn2C)c(C)c1,IC50,second compound 0.1 µM,1060 nM
same,IC50,second compound 0.316 µM,1080 nM
same,IC50,second compound 1 µM,901 nM
same,IC50,second compound 3.16 µM,818 nM
same,IC50,second compound 10 µM,1140 nM
same,"viability, T/C",[1],102%
same,"viability, T/C",[2],103%
same,"viability, T/C",[3],77.5%
same,"viability, T/C",[4],51%
same,"viability, T/C",[5],23.3%
same,"viability, T/C",[6],1.52%
same,"viability, T/C",[7],85.7%
same,"viability, T/C",[8],95%
same,"viability, T/C",[9],86%
same,"viability, T/C",[10],49.5%
same,"viability, T/C",[11],18.6%
same,"viability, T/C",[12],1.3%
same,"viability, T/C",[13],87.6%
same,"viability, T/C",[14],88.5%
same,"viability, T/C",[15],76.7%
same,"viability, T/C",[16],44.8%
same,"viability, T/C",[17],20.1%
same,"viability, T/C",[18],1.53%
same,"viability, T/C",[19],80.2%
same,"viability, T/C",[20],84.7%
same,"viability, T/C",[21],70.6%
same,"viability, T/C",[22],44.8%
same,"viability, T/C",[23],16.6%
same,"viability, T/C",[24],1.32%
same,"viability, T/C",[25],79.5%
same,"viability, T/C",[26],76.6%
same,"viability, T/C",[27],72.4%
same,"viability, T/C",[28],51.9%
same,"viability, T/C",[29],25.4%
same,"viability, T/C",[30],2.23%
COc1cc(C2c3cc4c(cc3C(OC3OC5COC(C)OC5C(O)C3O)C3COC(=O)C23)OCO4)cc(OC)c1O (stereo not given) + Cc1ccccc1N=Nc1ccc(NC(=O)c2ccnn2C)c(C)c1,IC50,second compound 0.1 µM,> 10000 nM
same,IC50,second compound 0.316 µM,> 10000 nM
same,IC50,second compound 1 µM,> 10000 nM
same,IC50,second compound 3.16 µM,> 10000 nM
same,IC50,second compound 10 µM,> 10000 nM
same,"viability, T/C",[1],86.4%
same,"viability, T/C",[2],83.5%
same,"viability, T/C",[3],69.7%
same,"viability, T/C",[4],68%
same,"viability, T/C",[5],69.5%
same,"viability, T/C",[6],57.4%
same,"viability, T/C",[7],80.8%
same,"viability, T/C",[8],86.7%
same,"viability, T/C",[9],77.3%
same,"viability, T/C",[10],69%
same,"viability, T/C",[11],70.2%
same,"viability, T/C",[12],57.6%
same,"viability, T/C",[13],80.7%
same,"viability, T/C",[14],82%
same,"viability, T/C",[15],75.7%
same,"viability, T/C",[16],64.6%
same,"viability, T/C",[17],72.1%
same,"viability, T/C",[18],54.2%
same,"viability, T/C",[19],73%
same,"viability, T/C",[20],72.7%
same,"viability, T/C",[21],71.1%
same,"viability, T/C",[22],61.2%
same,"viability, T/C",[23],70.9%
same,"viability, T/C",[24],56.4%
same,"viability, T/C",[25],67.8%
same,"viability, T/C",[26],77.5%
same,"viability, T/C",[27],73.2%
same,"viability, T/C",[28],65.6%
same,"viability, T/C",[29],63.5%
same,"viability, T/C",[30],57.1%
Cn1ncnc1C1c2n[nH]c(=O)c3cc(F)cc(c23)NC1c1ccc(F)cc1 (stereo not given) + CC(CO)NC(=O)c1cc(-c2ccc(Cl)cc2)nn(-c2cnn(C)c2)c1=O,IC50,second compound 0.1 µM,> 100 nM
same,IC50,second compound 0.316 µM,> 100 nM
same,IC50,second compound 1 µM,> 100 nM
same,IC50,second compound 3.16 µM,> 100 nM
same,IC50,second compound 10 µM,> 100 nM
same,"viability, T/C","second compound 0.1 µM, first compound 0.000316 µM",72.7%
same,"viability, T/C","second compound 0.1 µM, first compound 0.001 µM",96.6%
same,"viability, T/C","second compound 0.1 µM, first compound 0.00316 µM",77.3%
same,"viability, T/C","second compound 0.1 µM, first compound 0.01 µM",57.7%
same,"viability, T/C",[1],55.6%
same,"viability, T/C",[2],93%
same,"viability, T/C","second compound 0.316 µM, first compound 0.000316 µM",90.4%
same,"viability, T/C","second compound 0.316 µM, first compound 0.001 µM",92.8%
same,"viability, T/C","second compound 0.316 µM, first compound 0.00316 µM",78.6%
same,"viability, T/C","second compound 0.316 µM, first compound 0.01 µM",75.8%
same,"viability, T/C",[7],86%
same,"viability, T/C",[8],98.7%
same,"viability, T/C","second compound 1 µM, first compound 0.000316 µM",59.7%
same,"viability, T/C","second compound 1 µM, first compound 0.001 µM",92.4%
same,"viability, T/C","second compound 1 µM, first compound 0.00316 µM",75.1%
same,"viability, T/C","second compound 1 µM, first compound 0.01 µM",59.8%
same,"viability, T/C",[13],87.6%
same,"viability, T/C",[14],89.9%
same,"viability, T/C","second compound 3.16 µM, first compound 0.000316 µM",77.3%
same,"viability, T/C","second compound 3.16 µM, first compound 0.001 µM",51%
same,"viability, T/C","second compound 3.16 µM, first compound 0.00316 µM",123%
same,"viability, T/C","second compound 3.16 µM, first compound 0.01 µM",82.8%
same,"viability, T/C",[19],50.2%
same,"viability, T/C",[20],69.2%
same,"viability, T/C","second compound 10 µM, first compound 0.000316 µM",78.6%
same,"viability, T/C","second compound 10 µM, first compound 0.001 µM",68.8%
same,"viability, T/C","second compound 10 µM, first compound 0.00316 µM",70.6%
same,"viability, T/C","second compound 10 µM, first compound 0.01 µM",72%
same,"viability, T/C",[25],55.7%
same,"viability, T/C",[26],80.9%
